The text below walks through data of US8974827B2, “Nanoparticles comprising a non-ionizable cellulosic polymer and an amphiphilic non-ionizable block copolymer” (Bend Research, Inc., priority 2007, dated 2015).

The conditions of data set [1]: for Observations: pH 6.5. How it is done:
An appropriate PBS solution is an aqueous solution comprising 20 mM sodium phosphate (Na2HPO4), 47 mM potassium phosphate (KH2PO4), 87 mM NaCl, and 0.2 mM KCl, adjusted to pH 6.5 with NaOH. A test to determine whether the cellulosic polymer is insoluble may be performed as follows. The cellulosic polymer is initially present in bulk powder form with average particle sizes of greater than about 1 micron. The polymer alone is administered at a concentration of 0.2 mg/mL to the PBS solution and stirred for approximately 1 hour at room temperature. Next, a nylon 0.45 μm filter is weighed, and the solution is filtered. The filter is dried overnight at 40° C., and weighed the following morning.
First, 0.2 mg/mL of the polymer was added to a PBS solution consisting of 20 mM Na2HPO4, 47 mM KH2PO4, 87 mM NaCl, and 0.2 mM KCl, adjusted to pH 6.5 with NaOH. The polymer was stirred in the PBS solution for approximately 1 hour at room temperature. Next, the polymer solution was filtered through a nylon 0.45 μm filter that was weighed dry prior to filtration. The filter was dried overnight at 40° C., and weighed the following morning. The amount of soluble polymer was calculated from the amount of polymer added to form the polymer solution minus the amount of polymer remaining on the filter.

Data set [2] is described as follows: Solubility of drug in water. Type of data set: physicochemical. How it is done: The utility of the invention increases as the water solubility of the drug decreases. […] The Tg of non-crystalline Drug 1 was determined by DSC analysis to be 55° C., while the Tm of crystalline Drug 1 was 170° C.
Another data set is described as follows: Log P of drug. It counts as physicochemical. Particulars: octanol/water. The source says: The first property of hydrophobic drugs is that they are extremely hydrophobic. Log P, defined as the base 10 logarithm of the ratio of the drug solubility in octanol to the drug solubility in water, is a widely accepted measure of hydrophobicity. By “extremely hydrophobic” is meant that the Log P value of the drug is at least 4.0, preferably at least 4.5, and most preferably at least 5.0. Log P may be measured experimentally or calculated using methods known in the art. When using a calculated value for Log P, the highest value calculated using any generally accepted method for calculating Log P is used. Calculated Log P values are often referred to by the calculation method, such as Clog P, Alog P, and Mlog P. The Log P may also be estimated using fragmentation methods, such as Crippen's fragmentation method (27 J. Chem. Inf. Comput. Sci. 21 (1987)); Viswanadhan's fragmentation method (29 J. Chem. Inf. Comput. Sci. 163 (1989)); or Broto's fragmentation method (19 Eur. J. Med. Chem.-Chim. Theor. 71 (1984).

The nature of data set [3]: Free drug analysis by centrifuge filtration (30,000-dalton cutoff) and HPLC. It counts as physicochemical. Particulars: 30,000-dalton cutoff centrifuge filter, HPLC. How it is done:
The nanoparticle suspension was centrifuged for 3 minutes at 13,000 rpm using a 30,000-dalton molecular-weight cutoff centrifuge tube filter, and 50 μL of the supernatant was added to 250 μL acetonitrile. The sample was assayed by HPLC.

Data set [4] can be described thus: Solubility in model fasted duodenal (MFD) solution. It counts as physicochemical. Particulars: fassgf or other biorelevant, PBS containing 7.3 mM sodium taurocholic acid and 1.4 mM POPC.

In brackets after ≈: the same amount, converted by molar mass.

ethylcellulose: in data set [1], the “Amount Soluble at pH 6.5” value is listed as under 0.001 mg/mL and the Observations result is recorded as “Fine particle suspension”.

Consider Polyethylene glycol 8000 [PEG 8000], for which, in data set [1], the “Soluble at pH 6.5” value turned out to be 0.2 mg/mL and the Observations result is “Stabilizer dissolved”. For the molecule `CC[C@@H]1C[C@H](N(Cc2cc(C(F)(F)F)cc(C(F)(F)F)c2)C(C)=O)c2cc(C(F)(F)F)ccc2N1C(=O)OC(C)C` [Drug 2, [2R,4S] 4-[acetyl-(3,5-bis-trifluoromethyl-benzyl)-amino]-2-ethyl-6-trifluoromethyl-3,4-dihydro-2H-quinoline-1-carboxylic acid isopropyl ester], the solubility (usually the dissolved amount per volume that the medium holds) in data set [2] was under 1 µg/mL. For “poly(DL-lactide-co-glycolide 50:50) [PLGA]”, in data set [1], the “Amount Soluble at pH 6.5” value was 0.02 mg/mL and the Observations result is recorded as “Fine particle suspension”. As to `Cc1onc(-c2ccccc2)c1-c1ccc(S(N)(=O)=O)cc1` [Drug 1, 4-(5-methyl-3-phenyl-4-isoxazolyl)benzenesulfonamide], the solubility in data set [2] was about 10 µg/mL (≈ 31.8 µM). The lipophilicity (logP) (as a rule, a log measure of how a compound divides between an organic and an aqueous phase) in “Log P of drug” is about 3. In addition, the “Free Drug” value in data set [3] was 11 µg/mL. Consider `Cc1ccc(-c2cc(C(F)(F)F)nn2-c2ccc(S(N)(=O)=O)cc2)cc1` [Drug 3, celecoxib], for which the solubility in data set [4] is about 40 µg/mL (≈ 105 µM).
